Key:
Type in all cases: in vivo
[1] = system: Alopecurus myosuroides (ALOMY); test: Post-emergence herbicidal glasshouse test; conditions: post-emergence (sprayed after 8 days cultivation), evaluated after 13 days, 100=total damage to plant, 0=no damage to plant; for POST Application ALOMY, damage to plant: 1000 g/ha; for pest or weed control at 1000 g/ha: Alopecurus myosuroides, 312 h, read-out: POST Application ALOMY, damage to plant
Method: (§1) Seeds of a variety of test species were sown in standard soil in pots (Alopecurus myosuroides (ALOMY), Setaria faberi (SETFA), Echinochloa crus-galli (ECHCG), Solanum nigrum (SOLNI) and Amaranthus retoflexus (AMARE)). After cultivation for one day (pre-emergence) or after 8 days cultivation (post-emergence) under controlled conditions in a glasshouse (at 24/16° C., day/night; 14 hours light; 65% humidity), the plants were sprayed with an aqueous spray solution derived from the formulation of the technical active ingredient in acetone/water (50:50) solution containing 0.5% Tween 20 (polyoxyethelyene sorbitan monolaurate, CAS RN 9005-64-5). Compounds were applied at 1000 g/ha. The test plants were then grown in a glasshouse under controlled conditions in a glasshouse (at 24/16° C., day/night; 14 hours light; 65% humidity) and watered twice daily. After 13 days for pre and post-emergence, the test was evaluated (100=total damage to plant; 0=no damage to plant).

[2] = system: Amaranthus retoflexus (AMARE); test: Post-emergence herbicidal glasshouse test; conditions: post-emergence (sprayed after 8 days cultivation), evaluated after 13 days, 100=total damage to plant, 0=no damage to plant; for POST Application AMARE, damage to plant: 1000 g/ha; for pest or weed control at 1000 g/ha: Amaranthus retroflexus, 312 h, read-out: POST Application AMARE, damage to plant
Method: as §1

[3] = system: Echinochloa crus-galli (ECHCG); test: Post-emergence herbicidal glasshouse test; conditions: post-emergence (sprayed after 8 days cultivation), evaluated after 13 days, 100=total damage to plant, 0=no damage to plant; for POST Application ECHCG, damage to plant: 1000 g/ha; for pest or weed control at 1000 g/ha: Echinochloa crus-galli, 312 h, read-out: POST Application ECHCG, damage to plant
Method: as §1

Setaria faberi (SETFA) [4] = test: Post-emergence herbicidal glasshouse test; conditions: post-emergence (sprayed after 8 days cultivation), evaluated after 13 days, 100=total damage to plant, 0=no damage to plant; for POST Application SETFA, damage to plant: 1000 g/ha; for pest or weed control at 1000 g/ha: Setaria faberi, 312 h, read-out: POST Application SETFA, damage to plant
Method: as §1

Solanum nigrum (SOLNI) [5] = test: Post-emergence herbicidal glasshouse test; conditions: post-emergence (sprayed after 8 days cultivation), evaluated after 13 days, 100=total damage to plant, 0=no damage to plant; for POST Application SOLNI, damage to plant: 1000 g/ha; for pest or weed control at 1000 g/ha: Solanum nigrum, 312 h, read-out: POST Application SOLNI, damage to plant
Method: as §1

[6] = system: Alopecurus myosuroides (ALOMY); test: Pre-emergence herbicidal glasshouse test; conditions: pre-emergence (sprayed after one day cultivation), evaluated after 13 days, 100=total damage to plant, 0=no damage to plant; for PRE Application ALOMY, damage to plant: 1000 g/ha; for pest or weed control at 1000 g/ha: Alopecurus myosuroides, 312 h, read-out: PRE Application ALOMY, damage to plant
Method: as §1

[7] = system: Amaranthus retoflexus (AMARE); test: Pre-emergence herbicidal glasshouse test; conditions: pre-emergence (sprayed after one day cultivation), evaluated after 13 days, 100=total damage to plant, 0=no damage to plant; for PRE Application AMARE, damage to plant: 1000 g/ha; for pest or weed control at 1000 g/ha: Amaranthus retroflexus, 312 h, read-out: PRE Application AMARE, damage to plant
Method: as §1

[8] = system: Echinochloa crus-galli (ECHCG); test: Pre-emergence herbicidal glasshouse test; conditions: pre-emergence (sprayed after one day cultivation), evaluated after 13 days, 100=total damage to plant, 0=no damage to plant; for PRE Application ECHCG, damage to plant: 1000 g/ha; for pest or weed control at 1000 g/ha: Echinochloa crus-galli, 312 h, read-out: PRE Application ECHCG, damage to plant
Method: as §1

Setaria faberi (SETFA) [9] = test: Pre-emergence herbicidal glasshouse test; conditions: pre-emergence (sprayed after one day cultivation), evaluated after 13 days, 100=total damage to plant, 0=no damage to plant; for PRE Application SETFA, damage to plant: 1000 g/ha; for pest or weed control at 1000 g/ha: Setaria faberi, 312 h, read-out: PRE Application SETFA, damage to plant
Method: as §1

Solanum nigrum (SOLNI) [10] = test: Pre-emergence herbicidal glasshouse test; conditions: pre-emergence (sprayed after one day cultivation), evaluated after 13 days, 100=total damage to plant, 0=no damage to plant; for PRE Application SOLNI, damage to plant: 1000 g/ha; for pest or weed control at 1000 g/ha: Solanum nigrum, 312 h, read-out: PRE Application SOLNI, damage to plant
Method: as §1

Compound	POST Application ALOMY, damage to plant [1]	POST Application AMARE, damage to plant [2]	POST Application ECHCG, damage to plant [3]	POST Application SETFA, damage to plant (Setaria faberi (SETFA) [4])	POST Application SOLNI, damage to plant (Solanum nigrum (SOLNI) [5])	PRE Application ALOMY, damage to plant [6]	PRE Application AMARE, damage to plant [7]	PRE Application ECHCG, damage to plant [8]	PRE Application SETFA, damage to plant (Setaria faberi (SETFA) [9])	PRE Application SOLNI, damage to plant (Solanum nigrum (SOLNI) [10])	pest or weed control at 1000 g/ha [1]	pest or weed control at 1000 g/ha [2]	pest or weed control at 1000 g/ha [3]	pest or weed control at 1000 g/ha (Setaria faberi (SETFA) [4])	pest or weed control at 1000 g/ha (Solanum nigrum (SOLNI) [5])	pest or weed control at 1000 g/ha [6]	pest or weed control at 1000 g/ha [7]	pest or weed control at 1000 g/ha [8]	pest or weed control at 1000 g/ha (Setaria faberi (SETFA) [9])	pest or weed control at 1000 g/ha (Solanum nigrum (SOLNI) [10])
CCc1ccc2cc(C(=O)C3C(=O)CCCC3=O)c(C(F)(F)F)nc2n1 [Compound 1.3, 2-[7-ethyl-trifluoromethyl-[1,8]-naphthyridine-3-carbony]-cyclohexane-1,3-dione]	70	100	80	90	90	80	90	100	80	100	–	–	–	–	–	–	–	–	–	–
O=C1CCCC(=O)C1C(=O)c1cc2ccc(CF)nc2nc1C(F)(F)F [Compound 1.11]	–	–	–	–	–	–	–	–	–	–	70%	100%	90%	90%	100%	60%	80%	100%	100%	100%
O=C1CCCC(=O)C1C(=O)c1cc2ccc(C(F)F)nc2nc1C(F)(F)F [Compound 1.12]	–	–	–	–	–	–	–	–	–	–	100%	60%	100%	100%	100%	90%	100%	100%	100%	100%
O=C1CCCC(=O)C1C(=O)c1cc2ccc(OC3CCCC3)nc2nc1C(F)(F)F [Compound 1.16]	70	70	70	90	90	60	80	90	90	90	–	–	–	–	–	–	–	–	–	–
O=C1CCCC(=O)C1C(=O)c1cc2ccc(Oc3ccccc3)nc2nc1C(F)(F)F [Compound 1.17, 2-(7-phenoxy-2-trifluoromethyl-[1,8]-naphthyridine-3-carbonyl)-cyclohexane-1,3-dione]	–	–	–	–	–	–	–	–	–	–	90%	70%	90%	100%	100%	100%	100%	100%	100%	100%
CS(=O)(=O)c1ccc2cc(C(=O)C3C(=O)CCCC3=O)c(C(F)(F)F)nc2n1 [Compound 1.20]	–	–	–	–	–	–	–	–	–	–	20%	80%	90%	100%	100%	20%	30%	70%	80%	100%
O=C1CCCC(=O)C1C(=O)c1cc2ccc(O)nc2nc1C(F)(F)F [Compound 1.21, 2-(7-hydroxy-2-trifluoromethyl-[1,8]-naphthyridine-3-carbony)-cyclohexane-1,3-dione]	–	–	–	–	–	–	–	–	–	–	100%	100%	100%	100%	100%	80%	100%	100%	100%	100%
CC(F)c1ccc2cc(C(=O)C3C(=O)CCCC3=O)c(C(F)(F)F)nc2n1 (stereo not shown) [Compound 1.35, 2-[7-(1-fluoroethyl)-2-trifluoromethyl-[1,8]-naphthyridine-3-carbony]-cyclohexane-1,3-dione]	90	100	90	90	90	70	100	100	100	100	–	–	–	–	–	–	–	–	–	–
CC(F)(F)c1ccc2cc(C(=O)C3C(=O)CCCC3=O)c(C(F)(F)F)nc2n1 [Compound 1.36, 2-[7-(1,1-difluoroethyl)-2-trifluoromethyl-[1,8]-naphthyridine-3-carbony]-cyclohexane-1,3-dione]	90	100	90	90	100	70	100	90	100	100	–	–	–	–	–	–	–	–	–	–
CC(C)(F)c1ccc2cc(C(=O)C3C(=O)CCCC3=O)c(C(F)(F)F)nc2n1 [Compound 1.37]	80	100	90	90	70	80	100	100	100	100	–	–	–	–	–	–	–	–	–	–
Cc1nc2nc(C(F)(F)F)c(C(=O)C3C(=O)CCCC3=O)cc2cc1F [Compound 1.41, 2-[6-fluoro-7-methyl-2-trifluoromethyl-[1,8]-naphthyridine-3-carbony]-cyclohexane-1,3-dione]	–	–	–	–	–	–	–	–	–	–	90%	100%	90%	100%	90%	90%	100%	100%	100%	100%
CCCCC(C)Oc1ccc2cc(C(=O)C3C(=O)CCCC3=O)c(C(F)(F)F)nc2n1 (stereo not shown) [Compound 1.56]	30	70	70	80	80	20	40	80	90	100	–	–	–	–	–	–	–	–	–	–
Cc1c(F)cnc2nc(C(F)(F)F)c(C(=O)C3C(=O)CCCC3=O)cc12 [Compound 1.62, 2-[6-Fluoro-5-methyl-2-trifluoromethyl-[1,8]-naphthyridine-3-carbony]-cyclohexane-1,3-dione]	–	–	–	–	–	–	–	–	–	–	0%	50%	70%	70%	80%	0%	20%	50%	30%	60%
